# From patent US20080194701A1, “Bifunctional Enzyme with Y-Glutamylcysteine Synthetase and Glutathione Synthetase Activity and Uses Thereof” (priority 2004, published 2008)
# T1: Human γ-GCS (Homo sapiens, UniProt P48506)
# T1 sequence (P48506 1-637): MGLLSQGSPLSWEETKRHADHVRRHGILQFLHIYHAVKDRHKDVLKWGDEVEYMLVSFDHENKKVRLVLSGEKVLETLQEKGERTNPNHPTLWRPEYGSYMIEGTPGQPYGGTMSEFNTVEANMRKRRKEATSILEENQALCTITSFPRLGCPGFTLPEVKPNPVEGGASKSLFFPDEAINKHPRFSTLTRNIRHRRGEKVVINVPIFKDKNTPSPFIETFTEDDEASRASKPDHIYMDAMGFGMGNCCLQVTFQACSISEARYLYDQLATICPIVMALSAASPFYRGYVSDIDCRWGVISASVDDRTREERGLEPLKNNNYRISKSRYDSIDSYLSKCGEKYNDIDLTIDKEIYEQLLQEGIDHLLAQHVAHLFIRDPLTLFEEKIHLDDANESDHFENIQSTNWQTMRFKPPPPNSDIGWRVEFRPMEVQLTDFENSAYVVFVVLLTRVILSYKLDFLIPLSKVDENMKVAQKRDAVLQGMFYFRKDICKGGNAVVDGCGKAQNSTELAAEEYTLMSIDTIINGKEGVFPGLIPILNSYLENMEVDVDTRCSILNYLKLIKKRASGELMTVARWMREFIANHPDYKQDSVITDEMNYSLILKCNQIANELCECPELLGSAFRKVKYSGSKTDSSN
# T1 sequence (P48507 1-274 partner): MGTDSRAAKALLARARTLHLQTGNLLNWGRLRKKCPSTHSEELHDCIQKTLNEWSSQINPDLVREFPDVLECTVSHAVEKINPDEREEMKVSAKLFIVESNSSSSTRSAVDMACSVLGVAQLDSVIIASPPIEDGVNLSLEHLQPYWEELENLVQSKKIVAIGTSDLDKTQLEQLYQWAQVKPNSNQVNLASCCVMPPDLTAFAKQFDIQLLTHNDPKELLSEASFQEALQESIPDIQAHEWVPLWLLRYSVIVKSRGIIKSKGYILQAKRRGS
# T2: S. agalactiae γ-GCS-GS (Streptococcus agalactiae serotype V, UniProt Q8DXM9)
# T2 sequence (Q8DXM9 1-750): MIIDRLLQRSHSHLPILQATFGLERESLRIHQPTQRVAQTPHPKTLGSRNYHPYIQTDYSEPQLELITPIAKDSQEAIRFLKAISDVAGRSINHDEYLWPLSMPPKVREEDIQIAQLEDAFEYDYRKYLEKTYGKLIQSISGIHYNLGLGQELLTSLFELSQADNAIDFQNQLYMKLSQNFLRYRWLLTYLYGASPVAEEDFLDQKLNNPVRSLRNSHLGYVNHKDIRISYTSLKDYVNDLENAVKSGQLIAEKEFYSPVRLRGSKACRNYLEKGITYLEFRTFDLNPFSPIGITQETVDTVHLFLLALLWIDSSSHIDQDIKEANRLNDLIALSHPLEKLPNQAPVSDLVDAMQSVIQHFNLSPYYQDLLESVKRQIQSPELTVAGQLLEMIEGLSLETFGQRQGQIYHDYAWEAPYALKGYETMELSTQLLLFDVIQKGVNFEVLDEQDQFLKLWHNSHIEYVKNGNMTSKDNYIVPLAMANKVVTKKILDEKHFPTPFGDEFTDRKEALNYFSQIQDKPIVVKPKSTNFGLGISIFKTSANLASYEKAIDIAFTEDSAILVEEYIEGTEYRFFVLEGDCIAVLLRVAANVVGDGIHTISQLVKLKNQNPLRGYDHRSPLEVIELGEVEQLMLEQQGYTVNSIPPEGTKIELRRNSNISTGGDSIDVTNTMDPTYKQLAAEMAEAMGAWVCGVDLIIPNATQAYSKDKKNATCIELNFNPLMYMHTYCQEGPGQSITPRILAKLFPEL
# B1: S. agalactiae γ-GCS-GS (Streptococcus agalactiae 2603V/R) (protein)
# chain: T2 sequence (Q8DXM9 1-750)
# notes: corresponded to full-length S. agalactiae γ-GCS-GS with an N-terminal His8-tag; made in house; host or cells: E. coli SG13009 with pQE30-gshAB plus pREP4 or pRARE
# B2: E. faecalis γ-GCS-GS: bifunctional γ-GCS-GS enzyme of E. faecalis (gshAB, EF3089; SEQ ID NO:12) expressed in E. coli (protein, listed as Enterococcus faecalis)
# chain: MNYRELMQKKNVRPYVLMARFGLEKENQRSTREGLLATTEHPTVFGNRSYHPYIQTDFSETQLELITPVANSGTEMLRFLDAIHDVARRSIPEDEMLWPLSMPPQLPTKDEEIKIAKLDQYDAVLYRRYLAKEYGKRKQMVSGIHFNFEYDQALIQQLYDEQSEVTDCKQFKTKVYMKVARNFLRYRWLITYLFGASPVSEDRYFRVYDDQPQEPVRSIRNSTYGYRNHDNVKVSYASLERYLEDIHRMVENGLLSEEKEFYAPVRLRGGKQMSDLPKTGIRYIELRNLDLNPFSRLGIVEDTVDFLHYFMLYLLWTDEKEEADEWVKTGDIFNEQVALGHPHETIKLIAEGDRIFSEMIDMLDALGIRKGKEVVGKYYQQLRNPQDTVSGKMWTIIQENSNSELGNIFGNQYQSMAFERPYQLAGFREMELSTQIFLFDAIQKGLEIEILDEQEQFLKLQHGEHIEYVKNANMTSKDNYVVPLIMENKTVTKKILSAAGFHVPGGEEFSSFIEAQEAHLRYANKAFVVKPKSTNYGLGITIFKEGASLEDFTEALRIAFKEDTAVLIEEFLPGTEYRFFVLDNDVKAIMLRVPANVTGDGKHTVEELVAAKNSDPLRGTNHRAPLELIQLNDLEKLMLKEQGLTIYSVPEKEQIVYLRENSNVSTGGDSIDMTDVIDDSYKQIAIEAVAALGAKICGIDLIIPDKDVKGTRDSLTYGIIEANFNPAMHMHVYPYAGQGRRLTMDVLKLLYPEVVQ
# How the values were obtained:
# Human γ-GCS = target: T1, Human γ-GCS; conditions: cited from earlier work
# [1] = tested on: urinary tract infection caused by E. faecalis; assay: Treatment of urinary tract infection in a patient; format: in vivo, human
# Excerpt: A person weighing 50 kg presents to their physician with a urinary tract infection caused by E. faecalis. […] Two months later they return with a recurrence of the urinary tract infection due to E. faecalis.
# E. coli γ-GCS = E. coli γ-GCS (Escherichia coli, UniProt P0A6W9); conditions: cited from earlier work
# [2] = tested on: vaginal colonization with S. agalactiae (Group B Streptococcus); conditions: one 500 mg capsule by mouth every 6 hours from 2 days before due date
# Excerpt: A person who is allergic to penicillin is seen for prenatal screening prior to delivery of their first child.
# S. agalactiae γ-GCS-GS = target: T2, S. agalactiae γ-GCS-GS; assay: γ-GCS activity assay based on ADP formation, S. agalactiae γ-GCS-GS; format: biochemical; design: corresponded to full-length S. agalactiae γ-GCS-GS with an N-terminal His8-tag; made in house; host or cells: E. coli SG13009 with pQE30-gshAB plus pREP4 or pRARE
# Experimental: In Table 1, a unit was defined as the amount of enzyme activity required to catalyze the formation of 1 μmol of product per hour. Specific activity was shown as units per mg protein. Activity was determined at 37° C. based on ADP formation in reaction mixtures containing L-glutamate and L-cysteine and using pyruvate kinase and lactate dehydrogenase to couple ADP formation to NADH oxidation, which was monitored at 340 nm.
# Exp. Purif. 13, 268-276 (1998).
# At set time points ranging from one to 30 minutes, 5 μl aliquots were removed and assayed for residual enzyme activity using the standard γ-GCS assay based on ADP formation.
# N[C@@H](CS)C(=O)O = assay: purified protein, by the assay type; conditions: other: substrate Km, γ-GCS activity
# [3] = tested on: N[C@@H](CCC(=O)N[C@@H](CS)C(=O)O)C(=O)O; assay: purified protein, by the assay type; conditions: other: substrate Km, GS activity
# [4] = target: S. agalactiae γ-glutamylcysteine synthetase-glutathione synthetase (γ-GCS-GS) with an N-terminal His8-tag (Streptococcus agalactiae) (UniProt Q8DXM9); assay: cell-based or functional assay
# [5] = substrate: N[C@@H](CCC(=O)N[C@@H](CS)C(=O)O)C(=O)O; assay: cells, lysate or membranes named; conditions: other: substrate Km, GS activity; pH 7.4
# [6] = substrate: CC[C@H](N)C(=O)OC(=O)CC[C@H](N)C(=O)O; assay: cells, lysate or membranes named; conditions: other: substrate Km, GS activity; pH 7.4
# [7] = substrate: NCC(=O)O; assay: cells, lysate or membranes named; conditions: other: substrate Km, GS activity; pH 7.4
# [8] = substrate: N[C@@H](CS)C(=O)O; assay: γ-GCS activity assay based on ADP formation, S. agalactiae γ-GCS-GS; format: biochemical, Streptococcus agalactiae; conditions: other: substrate Km, pH 8.2, 37.0 °C
# E. faecalis γ-GCS-GS [9] = target: T3, E. faecalis γ-GCS-GS (Enterococcus faecalis, UniProt Q82ZG8); assay: GS activity of E. faecalis γ-GCS-GS; conditions: purified enzyme
# E. faecalis γ-GCS-GS [10] = target: T3, E. faecalis γ-GCS-GS; assay: γ-GCS activity of E. faecalis γ-GCS-GS
# Sequence of E. coli γ-GCS (P0A6W9 whole entry): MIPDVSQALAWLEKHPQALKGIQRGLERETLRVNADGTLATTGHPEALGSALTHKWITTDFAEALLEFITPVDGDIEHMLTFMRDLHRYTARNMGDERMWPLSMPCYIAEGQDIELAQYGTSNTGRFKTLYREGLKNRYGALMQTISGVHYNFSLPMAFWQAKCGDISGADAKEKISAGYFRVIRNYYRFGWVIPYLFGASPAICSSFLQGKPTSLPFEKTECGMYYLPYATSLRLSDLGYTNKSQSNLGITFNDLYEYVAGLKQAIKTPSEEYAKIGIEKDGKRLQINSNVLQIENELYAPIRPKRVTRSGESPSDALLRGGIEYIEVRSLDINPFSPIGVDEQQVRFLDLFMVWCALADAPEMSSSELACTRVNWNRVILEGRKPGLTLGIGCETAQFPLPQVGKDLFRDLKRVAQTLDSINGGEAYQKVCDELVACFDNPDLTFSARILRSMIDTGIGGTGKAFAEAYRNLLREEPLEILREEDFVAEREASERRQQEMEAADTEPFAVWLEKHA
molecule,measurement,setting,value
"CCCC[S@](=N)(=O)CC[C@H](N)C(=O)O [L-S—BSO, L-buthionine-S-sulfoximine, reference compound]",Kd,Human γ-GCS,25 µM
same,Ki,Human γ-GCS,25 µM
same,kinact,Human γ-GCS,3.9 min⁻¹
same,t1/2,Human γ-GCS; half-life for inactivation,11 s
same,outcome of infection,[1]; one 500 mg capsule by mouth every 6 hours for two days,without resolution of the infection
same,outcome of infection,"[1]; two 500 mg capsules every 6 hours, fourth day",urine is free of detectable bacteria
same,Kd,E. coli γ-GCS,66 µM
same,Ki,E. coli γ-GCS,66 µM
same,kinact,E. coli γ-GCS,~0.30 min⁻¹
same,t1/2,E. coli γ-GCS; half-life for inactivation,2.3 min
same,outcome of colonization,[2],no S. agalactiae bacteria are detected
same,Kd,S. agalactiae γ-GCS-GS,2.8 ± 0.3 mM
same,Ki,S. agalactiae γ-GCS-GS,4.9 ± 0.2 mM
same,kinact,S. agalactiae γ-GCS-GS,0.00217 s⁻¹
E. faecalis γ-GCS-GS (Enterococcus faecalis V583),Km,N[C@@H](CS)C(=O)O,192 ± 14 µM
same,Km,[3],4.30 ± 0.05 mM
Glutathione (L-γ-glutamyl-L-cysteinylglycine) (peptide),inhibition of γ-GCS activity,[4],< 5%
B1,Km,[5],3.9 ± 0.5 mM mM
same,Vmax,[5],2264 ± 896 units/mg units/mg
same,Km,[6],11.5 ± 1.5 mM mM
same,Vmax,[6],2648 ± 597 units/mg units/mg
same,Km,[7],6 ± 0.5 mM mM
same,Vmax,[7],2326 ± 584 units/mg
same,Km,[8],160 ± 9 μM μM
same,Vmax,[8],1126 ± 21 units/mg
B2,GS specific activity,E. faecalis γ-GCS-GS [9],2297 units/mg
same,ratio of activities (γ-GCS to GS),E. faecalis γ-GCS-GS [10],about 0.23
same,γ-GCS specific activity,E. faecalis γ-GCS-GS [10]; purified enzyme,240 units/mg
